Data taken from patent US20220127247A1, “N-(PYRIDIN-2-YL)PYRIDINE-SULFONAMIDE DERIVATIVES AND THEIR USE IN THE TREATMENT OF DISEASE” (NOVARTIS AG, priority 2019, published 2022).
pEC50: −log10 of the molar value.

Biological target: T1, delF508-CFTR (Homo sapiens, UniProt P13569, DEL508-508)
T1 construct: expressed in transfected cells
Assay: Measurement of delF508-CFTR-HRP surface expression in CFBE41o- cells
Assay type: cell-based
Settings: for pEC50: HRP-tagged delF508-CFTR in CFBE41o- cells, 24 h with compound, luminescence, 10-point curve, top 10 μM; for Emax: efficacy relative to reference compound 3-(6-(1-(2,2-difluorobenzo[d][1,3]dioxol-5-yl)cyclopropane-1-carboxamido)-3-methylpyridin-2-yl)benzoic acid, CFBE41o- cells, 24 h, read-out: DelF508-CFTR-HRP Amax %
Procedure, shortened: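 CFBE41o- cells stably expressing delF508-CFTR with HRP in the fourth extracellular loop, induced with 500 ng/mL doxycycline for 48 h, then treated with compound (top 10 μM, 10-point 3-fold) for 24 h at 37° C. Surface HRP detected by luminescence with cell-impermeant substrate; EC50 from logistic fit of triplicates, normalized to lowest concentration.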

T1 sequence (P13569 with tags, fused parts or gaps DEL508-508): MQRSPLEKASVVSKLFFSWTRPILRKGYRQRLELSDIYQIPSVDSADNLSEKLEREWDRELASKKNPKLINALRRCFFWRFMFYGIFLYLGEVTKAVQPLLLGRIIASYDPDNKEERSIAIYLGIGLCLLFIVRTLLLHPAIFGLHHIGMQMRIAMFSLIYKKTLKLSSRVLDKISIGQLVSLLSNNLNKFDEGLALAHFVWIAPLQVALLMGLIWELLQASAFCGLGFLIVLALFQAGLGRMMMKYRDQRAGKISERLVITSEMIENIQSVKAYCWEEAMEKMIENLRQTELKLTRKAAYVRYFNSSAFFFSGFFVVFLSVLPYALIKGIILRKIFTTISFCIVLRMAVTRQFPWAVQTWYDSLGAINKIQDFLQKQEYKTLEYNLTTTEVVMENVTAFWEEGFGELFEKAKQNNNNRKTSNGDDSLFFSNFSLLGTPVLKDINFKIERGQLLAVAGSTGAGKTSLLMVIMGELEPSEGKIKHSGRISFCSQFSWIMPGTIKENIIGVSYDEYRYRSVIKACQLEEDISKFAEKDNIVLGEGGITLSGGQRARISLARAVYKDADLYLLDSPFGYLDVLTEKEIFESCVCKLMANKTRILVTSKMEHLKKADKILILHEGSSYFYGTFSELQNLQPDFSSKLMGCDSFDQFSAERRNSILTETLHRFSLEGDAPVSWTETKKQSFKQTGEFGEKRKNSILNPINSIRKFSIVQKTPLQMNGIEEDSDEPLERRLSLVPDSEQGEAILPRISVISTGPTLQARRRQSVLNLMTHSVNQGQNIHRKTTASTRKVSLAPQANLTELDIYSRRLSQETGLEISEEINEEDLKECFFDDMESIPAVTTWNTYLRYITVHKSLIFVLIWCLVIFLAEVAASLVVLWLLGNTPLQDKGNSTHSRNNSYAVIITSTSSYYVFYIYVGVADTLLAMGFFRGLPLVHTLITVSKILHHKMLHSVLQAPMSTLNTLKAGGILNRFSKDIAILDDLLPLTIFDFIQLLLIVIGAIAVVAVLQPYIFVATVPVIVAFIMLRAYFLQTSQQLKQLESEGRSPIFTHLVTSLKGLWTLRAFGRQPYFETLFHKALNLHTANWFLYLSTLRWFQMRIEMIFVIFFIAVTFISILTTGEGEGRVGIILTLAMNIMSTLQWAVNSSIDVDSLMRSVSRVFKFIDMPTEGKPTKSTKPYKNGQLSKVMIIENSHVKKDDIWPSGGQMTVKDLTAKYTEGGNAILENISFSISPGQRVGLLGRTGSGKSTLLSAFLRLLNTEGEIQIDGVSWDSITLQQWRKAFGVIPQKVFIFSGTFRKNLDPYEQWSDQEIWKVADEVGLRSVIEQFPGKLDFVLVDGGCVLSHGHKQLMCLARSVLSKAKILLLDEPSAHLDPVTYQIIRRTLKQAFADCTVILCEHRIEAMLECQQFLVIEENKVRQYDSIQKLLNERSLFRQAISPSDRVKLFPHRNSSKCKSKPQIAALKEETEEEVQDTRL

Row | SMILES | pEC50 | Emax
1 | Cc1ccccc1-c1nc(NS(=O)(=O)c2cccc(N3CCCC(C)(CC(=O)O)C3)n2)ccc1C(F)(F)F (centres unmarked) [Compound 51, 2-(3-methyl-1-(6-(N-(6-(o-tolyl)-5-(trifluoromethyl)pyridin-2-yl)sulfamoyl)pyridin-2-yl)piperidin-3-yl)acetic Acid] | 5.80 | –
2 | Cc1ccc(F)cc1-c1nc(NS(=O)(=O)c2cccc(N3CCCC(C)(CC(=O)O)C3)n2)ccc1C(F)(F)F (centres unmarked) [Compound 52, 2-(1-(6-(N-(6-(5-fluoro-2-methylphenyl)-5-(trifluoromethyl)pyridin-2-yl)sulfamoyl)pyridin-2-yl)-3-methylpiperidin-3-yl)acetic Acid] | 5.83 | –
3 | Cc1ccccc1-c1nc(NS(=O)(=O)c2cccc(N3CCC(C)(CC(=O)O)C3)n2)ccc1C(F)(F)F (centres unmarked) [Compound 53, 2-(3-methyl-1-(6-(N-(6-(o-tolyl)-5-(trifluoromethyl)pyridin-2-yl)sulfamoyl)pyridin-2-yl)pyrrolidin-3-yl)acetic Acid] | 5.75 | 411%
4 | Cc1c(F)cccc1-c1nc(NS(=O)(=O)c2cccc(N3CCC(C)(CC(=O)O)C3)n2)ccc1C(F)(F)F (centres unmarked) [Compound 54, 2-(1-(6-(N-(6-(3-fluoro-2-methylphenyl)-5-(trifluoromethyl)pyridin-2-yl)sulfamoyl)pyridin-2-yl)-3-methylpyrrolidin-3-yl)acetic Acid] | 5.70 | 369%
5 | Cc1ccc(F)cc1-c1nc(NS(=O)(=O)c2cccc(N3CCC(C)(CC(=O)O)C3)n2)ccc1C(F)(F)F (centres unmarked) [Compound 55, 2-(1-(6-(N-(6-(5-fluoro-2-methylphenyl)-5-(trifluoromethyl)pyridin-2-yl)sulfamoyl)pyridin-2-yl)-3-methylpyrrolidin-3-yl)acetic Acid] | 5.77 | 457%
6 | C=Cc1ccccc1-c1nc(NS(=O)(=O)c2cccc(N3CCC[C@H](CC(=O)O)C3)n2)ccc1C(F)(F)F [Compound 57, (R)-2-(1-(6-(N-(5-(trifluoromethyl)-6-(2-vinylphenyl)pyridin-2-yl)sulfamoyl)pyridin-2-yl)piperidin-3-yl)acetic Acid] | 5.71 | –
7 | C=Cc1ccccc1-c1nc(NS(=O)(=O)c2cccc(N3CCC[C@@H](CC(=O)O)C3)n2)ccc1C(F)(F)F [Compound 58, (S)-2-(1-(6-(N-(5-(trifluoromethyl)-6-(2-vinylphenyl)pyridin-2-yl)sulfamoyl)pyridin-2-yl)piperidin-3-yl)acetic Acid] | 5.63 | –
8 | Cc1ccccc1-c1nc(NS(=O)(=O)c2cccc(N3CCC[C@H](CC(=O)O)C3)n2)ccc1C(F)(F)F [Compound 59, (R)-2-(1-(6-(N-(6-(o-tolyl)-5-(trifluoromethyl)pyridin-2-yl)sulfamoyl)pyridin-2-yl)piperidin-3-yl)acetic Acid] | 5.68 | 920%
9 | CCN(CCC(=O)O)c1cccc(S(=O)(=O)Nc2ccc(C(F)(F)F)c(-c3cc(F)ccc3C)n2)n1 [Compound 61, 3-(ethyl(6-(N-(6-(5-fluoro-2-methylphenyl)-5-(trifluoromethyl)pyridin-2-yl)sulfamoyl)pyridin-2-yl)amino)propanoic Acid] | 5.45 | 736%
10 | Cc1ccc(F)cc1-c1nc(NS(=O)(=O)c2cccc(N(CCC(=O)O)CC3CC3)n2)ccc1C(F)(F)F [Compound 69, 3-((cyclopropylmethyl)(6-(N-(6-(5-fluoro-2-methylphenyl)-5-(trifluoromethyl)pyridin-2-yl)sulfamoyl)pyridin-2-yl)amino)propanoic Acid] | 5.75 | –
11 | Cc1ccccc1-c1nc(NS(=O)(=O)c2cccc(N3CCCC(CCC(=O)O)C3)n2)ccc1C(F)(F)F (centres unmarked) [Compound 73, 3-(1-(6-(N-(6-(o-tolyl)-5-(trifluoromethyl)pyridin-2-yl)sulfamoyl)pyridin-2-yl)piperidin-3-yl)propanoic acid] | 5.86 | –
12 | C=Cc1ccccc1-c1nc(NS(=O)(=O)c2cccc(N3CCCC(CCC(=O)O)C3)n2)ccc1C(F)(F)F (centres unmarked) [Compound 74, 3-(1-(6-(N-(5-(trifluoromethyl)-6-(2-vinylphenyl)pyridin-2-yl)sulfamoyl)pyridin-2-yl)piperidin-3-yl)propanoic Acid] | 5.96 | –
